Measured values published in patent US9765074B2, “Inhibitors of the renal outer medullary potassium channel” (Merck Sharp & Dohme Corp., priority 2013, dated 2017).

Target: T1, hROMK (hKir1.1) (Homo sapiens, UniProt P48048)
T1 construct: expressed in transfected cells
T1 sequence (P48048 1-391): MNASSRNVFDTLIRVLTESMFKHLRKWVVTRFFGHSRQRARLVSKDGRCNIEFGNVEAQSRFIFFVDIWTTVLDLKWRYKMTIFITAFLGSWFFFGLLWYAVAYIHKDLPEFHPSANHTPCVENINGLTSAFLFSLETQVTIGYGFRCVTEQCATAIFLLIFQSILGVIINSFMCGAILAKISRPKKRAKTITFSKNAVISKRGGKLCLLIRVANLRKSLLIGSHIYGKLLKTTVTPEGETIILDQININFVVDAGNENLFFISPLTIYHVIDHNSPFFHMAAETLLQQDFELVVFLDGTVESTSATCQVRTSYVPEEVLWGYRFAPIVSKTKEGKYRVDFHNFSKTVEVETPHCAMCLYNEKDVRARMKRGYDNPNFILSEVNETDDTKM
Assay: Thallium Flux Assay (ROMK channel functional thallium flux, FLIPR-Tetra)
Type: cell-based
Conditions: HEK293 cells stably expressing hROMK (hKir1.1); 30 min compound incubation
Method in brief: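 HEK293 cells stably expressing hKir1.1, loaded with FluxOR dye for 90 min, then preincubated with compound for 30 min at ambient temperature with 0.3 mM ouabain and probenecid. Stimulated with 3 mM thallium/0.3 mM potassium (final); fluorescence read ~10 min. Normalized to 3 μM reference ROMK inhibitor; IC50 from inhibition of flux.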

SMILES | IC50
CC1=C(N2CCC3(CCN(C[C@H](O)c4ccc(-n5cnnn5)c(C)n4)CC3)C2=O)COC1=O [Example 30, 8-{(2S)-2-hydroxy-2-[6-methyl-5-(1H-tetrazol-1-yl)pyridin-2-yl]ethyl}-2-(4-methyl-5-oxo-2,5-dihydrofuran-3-yl)-1-oxo-2-aza-8-azoniaspiro[4.5]decane] | 20 nM
CC1=C(N2CCC3(CCN(C[C@@H](O)c4ccc(-n5cnnn5)c(C)n4)CC3)C2=O)COC1=O [Example 31, 8-{(2R)-2-hydroxy-2-[6-methyl-5-(1H-tetrazol-1-yl)pyridin-2-yl]ethyl}-2-(4-methyl-5-oxo-2,5-dihydrofuran-3-yl)-1-oxo-2-aza-8-azoniaspiro[4.5]decane] | 30 nM
CC1=C(N2CCC3(CCN(C[C@H](O)c4ccc(-n5cnnn5)nn4)CC3)C2=O)COC1=O [Example 32, 8-{(2S)-2-hydroxy-2-[6-(1H-tetrazol-1-yl)pyridazin-3-yl]ethyl}-2-(4-methyl-5-oxo-2,5-dihydrofuran-3-yl)-1-oxo-2-aza-8-azoniaspiro[4.5]decane] | 20 nM
CC1=C(N2CCC3(CCN(C[C@@H](O)c4ccc(-n5cnnn5)nn4)CC3)C2=O)COC1=O [Example 33, 8-{(2R)-2-hydroxy-2-[6-(1H-tetrazol-1-yl)pyridazin-3-yl]ethyl}-2-(4-methyl-5-oxo-2,5-dihydrofuran-3-yl)-1-oxo-2-aza-8-azoniaspiro[4.5]decane] | 20 nM
CC1=C(N2CCC3(CCN(C[C@H](O)c4ccc(-n5cnnn5)cc4)CC3)C2=O)COC1=O [Example 34, 8-{(2R)-2-hydroxy-2-[4-(1H-tetrazol-1-yl)phenyl]ethyl}-2-(4-methyl-5-oxo-2,5-dihydrofuran-3-yl)-1-oxo-2-aza-8-azoniaspiro[4.5]decane] | 10 nM
CC1=C(N2CCC3(CCN(C[C@@H](O)c4ccc(-n5cnnn5)cc4)CC3)C2=O)COC1=O [Example 35, 8-{(2S)-2-hydroxy-2-[4-(1H-tetrazol-1-yl)phenyl]ethyl}-2-(4-methyl-5-oxo-2,5-dihydrofuran-3-yl)-1-oxo-2-aza-8-azoniaspiro[4.5]decane] | 10 nM
CC1=C(N2CCC3(CCN(C[C@H](O)c4ccc(-n5cnnn5)cc4F)CC3)C2=O)COC1=O [Example 36, 8-{(2R)-2-[2-fluoro-4-(1H-tetrazol-1-yl)phenyl]-2-hydroxyethyl}-2-(4-methyl-5-oxo-2,5-dihydrofuran-3-yl)-1-oxo-2-aza-8-azoniaspiro[4.5]decane] | 10 nM
CC1=C(N2CCC3(CCN(C[C@@H](O)c4ccc(-n5cnnn5)cc4F)CC3)C2=O)COC1=O [Example 37, 8-{(2S)-2-[2-fluoro-4-(1H-tetrazol-1-yl)phenyl]-2-hydroxyethyl}-2-(4-methyl-5-oxo-2,5-dihydrofuran-3-yl)-1-oxo-2-aza-8-azoniaspiro[4.5]decane] | 10 nM
CC1=C(N2CCC3(CCN(C[C@H](O)c4ccc(-n5cnnn5)cc4C)CC3)C2=O)COC1=O [Example 38, 8-{(2R)-2-hydroxy-2-[2-methyl-4-(1H-tetrazol-1-yl)phenyl]ethyl}-2-(4-methyl-5-oxo-2,5-dihydrofuran-3-yl)-1-oxo-2-aza-8-azoniaspiro[4.5]decane] | 10 nM
CC1=C(N2CCC3(CCN(C[C@@H](O)c4ccc(-n5cnnn5)cc4C)CC3)C2=O)COC1=O [Example 39, 8-{(2S)-2-hydroxy-2-[2-methyl-4-(1H-tetrazol-1-yl)phenyl]ethyl}-2-(4-methyl-5-oxo-2,5-dihydrofuran-3-yl)-1-oxo-2-aza-8-azoniaspiro[4.5]decane] | 10 nM
CC1=C(N2CCC3(CCN(C[C@H](O)c4ncc(-n5cnnn5)cn4)CC3)C2=O)COC1=O [Example 40, 8-{(2S)-2-hydroxy-2-[5-(1H-tetrazol-1-yl)pyrimidin-2-yl]ethyl}-2-(4-methyl-5-oxo-2,5-dihydrofuran-3-yl)-1-oxo-2-aza-8-azoniaspiro[4.5]decane] | 200 nM
CC1=C(N2CCC3(CCN(C[C@@H](O)c4ncc(-n5cnnn5)cn4)CC3)C2=O)COC1=O [Example 41, 8-{(2R)-2-hydroxy-2-[5-(1H-tetrazol-1-yl)pyrimidin-2-yl]ethyl}-2-(4-methyl-5-oxo-2,5-dihydrofuran-3-yl)-1-oxo-2-aza-8-azoniaspiro[4.5]decane] | 160 nM
Cc1nc(-n2cnnn2)ccc1[C@H](O)CN1C2CCC1CC1(CCN(C3=CC(=O)OC3)C1=O)C2 (stereo partly drawn) [Example 42, (1R,5R)-8-{(2S)-2-hydroxy-2-[2-methyl-6-(1H-tetrazol-1-yl)pyridin-3-yl]ethyl}-2′-oxo-1′-(5-oxo-2,5-dihydrofuran-3-yl)spiro[8-azoniabicyclo[3.2.1]octane-3,3′-pyrrolidine]] | 20 nM
Cc1nc(-n2cnnn2)ccc1[C@@H](O)CN1C2CCC1CC1(CCN(C3=CC(=O)OC3)C1=O)C2 (stereo partly drawn) [Example 43, (1R,5R)-8-{(2R)-2-hydroxy-2-[2-methyl-6-(1H-tetrazol-1-yl)pyridin-3-yl]ethyl}-2′-oxo-1′-(5-oxo-2,5-dihydrofuran-3-yl)spiro[8-azoniabicyclo[3.2.1]octane-3,3′-pyrrolidine]] | 10 nM
O=C1C=C(N2CCC3(CC4CCC(C3)N4C[C@H](O)c3ccc(-n4cnnn4)nn3)C2=O)CO1 (stereo partly drawn) [Example 44, (1R,5R)-8-{(2S)-2-hydroxy-2-[6-(1H-tetrazol-1-yl)pyridazin-3-yl]ethyl}-2′-oxo-1′-(5-oxo-2,5-dihydrofuran-3-yl)spiro[8-azoniabicyclo[3.2.1]octane-3,3′-pyrrolidine]] | 10 nM
CC1=C(N2CCC3(CC4CCC(C3)N4C[C@H](O)c3cnc(-n4cnnn4)nc3)C2=O)COC1=O (stereo partly drawn) [Example 45, (1R,5R)-8-{(2R)-2-hydroxy-2-[2-(1H-tetrazol-1-yl)pyrimidin-5-yl]ethyl}-1′-(4-methyl-5-oxo-2,5-dihydrofuran-3-yl)-2′-oxospiro[8-azoniabicyclo[3.2.1]octane-3,3′-pyrrolidine]] | 30 nM
CC1=C(N2CCC3(CC4CCC(C3)N4C[C@@H](O)c3ccc(-n4cnnn4)cn3)C2=O)COC1=O (stereo partly drawn) [Example 46, (1R,5R)-8-{(2R)-2-hydroxy-2-[5-(1H-tetrazol-1-yl)pyridin-2-yl]ethyl}-1′-(4-methyl-5-oxo-2,5-dihydrofuran-3-yl)-2′-oxospiro[8-azoniabicyclo[3.2.1]octane-3,3′-pyrrolidine]] | 20 nM
CC1=C(N2CCC3(CC4CCC(C3)N4C[C@H](O)c3ccc(-n4cnnn4)cn3)C2=O)COC1=O (stereo partly drawn) [Example 47, (1R,5R)-8-{(2S)-2-hydroxy-2-[5-(1H-tetrazol-1-yl)pyridin-2-yl]ethyl}-1′-(4-methyl-5-oxo-2,5-dihydrofuran-3-yl)-2′-oxospiro[8-azoniabicyclo[3.2.1]octane-3,3′-pyrrolidine]] | 20 nM
CC1=C(N2CCC3(CC4CCC(C3)N4C[C@H](O)c3cnc(-n4cnnn4)cn3)C2=O)COC1=O (stereo partly drawn) [Example 48, (1R,5R)-8-{(2S)-2-hydroxy-2-[5-(1H-tetrazol-1-yl)pyrazin-2-yl]ethyl}-1′-(4-methyl-5-oxo-2,5-dihydrofuran-3-yl)-2′-oxospiro[8-azoniabicyclo[3.2.1]octane-3,3′-pyrrolidine]] | 30 nM
CC1=C(N2CCC3(CC4CCC(C3)N4C[C@@H](O)c3cnc(-n4cnnn4)cn3)C2=O)COC1=O (stereo partly drawn) [Example 49, (1R,5R)-8-{(2R)-2-hydroxy-2-[5-(1H-tetrazol-1-yl)pyrazin-2-yl]ethyl}-1′-(4-methyl-5-oxo-2,5-dihydrofuran-3-yl)-2′-oxospiro[8-azoniabicyclo[3.2.1]octane-3,3′-pyrrolidine]] | 90 nM
CC1=C(N2CCC3(CC4CCC(C3)N4C[C@H](O)c3nnc(-n4cnnn4)c(C)c3C)C2=O)COC1=O (stereo partly drawn) [Example 50, (1R,5R)-8-{(2S)-2-[4,5-dimethyl-6-(1H-tetrazol-1-yl)pyridazin-3-yl]-2-hydroxyethyl}-1′-(4-methyl-5-oxo-2,5-dihydrofuran-3-yl)-2′-oxospiro[8-azoniabicyclo[3.2.1]octane-3,3′-pyrrolidine]] | 20 nM
CC1=C(N2CCC3(CC4CCC(C3)N4C[C@@H](O)c3nnc(-n4cnnn4)c(C)c3C)C2=O)COC1=O (stereo partly drawn) [Example 51, (1R,5R)-8-{(2R)-2-[4,5-dimethyl-6-(1H-tetrazol-1-yl)pyridazin-3-yl]-2-hydroxyethyl}-1′-(4-methyl-5-oxo-2,5-dihydrofuran-3-yl)-2′-oxospiro[8-azoniabicyclo[3.2.1]octane-3,3′-pyrrolidine]] | 30 nM
CC1=C(N2CCC3(CC4CCC(C3)N4C[C@H](O)c3ccc(-n4cnnn4)nn3)C2=O)COC1=O (stereo partly drawn) [Example 52, (1R,5R)-8-{(2S)-2-hydroxy-2-[6-(1H-tetrazol-1-yl)pyridazin-3-yl]ethyl}-1′-(4-methyl-5-oxo-2,5-dihydrofuran-3-yl)-2′-oxospiro[8-azoniabicyclo[3.2.1]octane-3,3′-pyrrolidine]] | 10 nM
CC1=C(N2CCC3(CC4CCC(C3)N4C[C@@H](O)c3ccc(-n4cnnn4)nn3)C2=O)COC1=O (stereo partly drawn) [Example 53, (1R,5R)-8-{(2R)-2-hydroxy-2-[6-(1H-tetrazol-1-yl)pyridazin-3-yl]ethyl}-1′-(4-methyl-5-oxo-2,5-dihydrofuran-3-yl)-2′-oxospiro[8-azoniabicyclo[3.2.1]octane-3,3′-pyrrolidine]] | 10 nM
